In ChEMBL document CHEMBL1201862, “PubChem BioAssay data set” (2004):
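Five concentrations, 48 hours, 96-well plates. Here, GI50 denotes the concentration required for 50% inhibition of growth.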 Calls of active or inactive are those of the source. Cut-off read from the data, not from the text of the source: active = GI50 up to about 1.1 µM and inactive = higher.

What was measured:
Assay in all cases: growth of human tumour cells (NCI), 48 h
786-0 = test system: 786-0
A498 = test system: A498
A549 = test system: A549
ACHN = test system: ACHN
BT-549 = test system: BT-549
CAKI-1 = test system: CAKI-1
CCRF-CEM = test system: CCRF-CEM
COLO 205 = test system: COLO 205
DU-145 = test system: DU-145
EKVX = test system: EKVX
HCC 2998 = test system: HCC 2998
HCT-116 = test system: HCT-116
HCT-15 = test system: HCT-15
HL-60 = test system: HL-60
HOP-62 = test system: HOP-62
HOP-92 = test system: HOP-92
HT-29 = test system: HT-29
Hs-578T = test system: Hs-578T
IGROV-1 = test system: IGROV-1
K562 = test system: K562
KM12 = test system: KM12
LOX IMVI = test system: LOX IMVI
M14 = test system: M14
MCF7 = test system: MCF7
MDA-MB-231 = test system: MDA-MB-231
MDA-MB-435 = test system: MDA-MB-435
MDA-N = test system: MDA-N
MOLT-4 = test system: MOLT-4
Malme-3M = test system: Malme-3M
NCI-H23 = test system: NCI-H23
NCI-H460 = test system: NCI-H460
NCI-H522 = test system: NCI-H522
NCI/ADR-RES = test system: NCI/ADR-RES
OVCAR-3 = test system: OVCAR-3
OVCAR-5 = test system: OVCAR-5
OVCAR-8 = test system: OVCAR-8
PC-3 = test system: PC-3
RPMI-8226 = test system: RPMI-8226
RXF 393 = test system: RXF 393
SF-268 = test system: SF-268
SF-295 = test system: SF-295
SF-539 = test system: SF-539
SK-MEL-28 = test system: SK-MEL-28
SK-MEL-2 = test system: SK-MEL-2
SK-MEL-5 = test system: SK-MEL-5
SK-OV-3 = test system: SK-OV-3
SN12C = test system: SN12C
SNB-19 = test system: SNB-19
SNB-75 = test system: SNB-75
SR = test system: SR
SW-620 = test system: SW-620
T47D = test system: T47D
TK-10 = test system: TK-10
U-251 = test system: U-251
UACC-257 = test system: UACC-257
UACC-62 = test system: UACC-62
UO-31 = test system: UO-31
NCI-H226 = test system: NCI-H226
OVCAR-4 = test system: OVCAR-4

SMILES: Cc1cccc(C[C@@]2(SCc3ccccc3)C(C)(C)[C@@H]3CC[C@@]2(C)C3)n1
- GI50 (786-0): 17.6 µM (inactive)
- GI50 (A498): 15.3 µM (inactive)
- GI50 (A549): 21.9 µM (inactive)
- GI50 (ACHN): 15.5 µM (inactive)
- GI50 (BT-549): 20 µM (inactive)
- GI50 (CAKI-1): 16.7 µM (inactive)
- GI50 (CCRF-CEM): 12.9 µM (inactive)
- GI50 (COLO 205): 15.6 µM (inactive)
- GI50 (DU-145): 16.9 µM (inactive)
- GI50 (EKVX): 17.6 µM (inactive)
- GI50 (HCC 2998): 15.4 µM (inactive)
- GI50 (HCT-116): 14.7 µM (inactive)
- GI50 (HCT-15): 13.8 µM
- GI50 (HL-60): 13.3 µM (inactive)
- GI50 (HOP-62): 23.4 µM (inactive)
- GI50 (HOP-92): 14.3 µM (inactive)
- GI50 (HT-29): 15 µM (inactive)
- GI50 (Hs-578T): 19.7 µM (inactive)
- GI50 (IGROV-1): 15.1 µM (inactive)
- GI50 (K562): 13.1 µM (inactive)
- GI50 (KM12): 16.4 µM (inactive)
- GI50 (LOX IMVI): 16.6 µM (inactive)
- GI50 (M14): 14.7 µM (inactive)
- GI50 (MCF7): 13.9 µM (inactive)
- GI50 (MDA-MB-231): 14 µM (inactive)
- GI50 (MDA-MB-435): 24 µM (inactive)
- GI50 (MDA-N): 24.5 µM (inactive)
- GI50 (MOLT-4): 12.6 µM (inactive)
- GI50 (Malme-3M): 15.5 µM (inactive)
- GI50 (NCI-H23): 13.9 µM (inactive)
- GI50 (NCI-H460): 15.6 µM (inactive)
- GI50 (NCI-H522): 14.3 µM (inactive)
- GI50 (NCI/ADR-RES): 13.8 µM (inactive)
- GI50 (OVCAR-3): 15.6 µM (inactive)
- GI50 (OVCAR-5): 18 µM (inactive)
- GI50 (OVCAR-8): 16.5 µM (inactive)
- GI50 (PC-3): 20 µM (inactive)
- GI50 (RPMI-8226): 11.8 µM (inactive)
- GI50 (RXF 393): 16.3 µM (inactive)
- GI50 (SF-268): 16.1 µM (inactive)
- GI50 (SF-295): 14 µM (inactive)
- GI50 (SF-539): 23.3 µM (inactive)
- GI50 (SK-MEL-28): 19.5 µM (inactive)
- GI50 (SK-MEL-2): 13.9 µM (inactive)
- GI50 (SK-MEL-5): 15.9 µM (inactive)
- GI50 (SK-OV-3): 20.4 µM (inactive)
- GI50 (SN12C): 16.3 µM (inactive)
- GI50 (SNB-19): 16.3 µM (inactive)
- GI50 (SNB-75): 15.2 µM (inactive)
- GI50 (SR): 14.6 µM (inactive)
- GI50 (SW-620): 15 µM (inactive)
- GI50 (T47D): 7.26 µM (inactive)
- GI50 (TK-10): 17.6 µM (inactive)
- GI50 (U-251): 16.6 µM (inactive)
- GI50 (UACC-257): 14.1 µM (inactive)
- GI50 (UACC-62): 13.7 µM (inactive)
- GI50 (UO-31): 19.4 µM (inactive)

SMILES: Cc1ccc2c(c1)-c1c(C#N)c(N)nc(-c3ccc(Cl)cc3)c1CCS2(=O)=O
- GI50 (786-0): 6.19 µM (inactive)
- GI50 (A498): 17.2 µM (inactive)
- GI50 (A549): 5.31 µM (inactive)
- GI50 (ACHN): 8.77 µM (inactive)
- GI50 (BT-549): 13.6 µM (inactive)
- GI50 (CAKI-1): 5.97 µM (inactive)
- GI50 (CCRF-CEM): 1.12 µM (active)
- GI50 (COLO 205): 4.55 µM (inactive)
- GI50 (DU-145): 17.2 µM (inactive)
- GI50 (EKVX): 20.8 µM (inactive)
- GI50 (HCC 2998): 6.7 µM (inactive)
- GI50 (HCT-116): 4.45 µM (inactive)
- GI50 (HCT-15): 4.6 µM
- GI50 (HL-60): 0.207 µM (active)
- GI50 (HOP-62): 6.12 µM (inactive)
- GI50 (HOP-92): 44.5 µM (inactive)
- GI50 (HT-29): 3.61 µM (inactive)
- GI50 (Hs-578T): 6.15 µM (inactive)
- GI50 (IGROV-1): 5.43 µM (inactive)
- GI50 (K562): 2.8 µM (inactive)
- GI50 (KM12): 3.48 µM (inactive)
- GI50 (LOX IMVI): 10.1 µM (inactive)
- GI50 (M14): 5.21 µM (inactive)
- GI50 (MCF7): 5.37 µM (inactive)
- GI50 (MDA-MB-231): 12.3 µM (inactive)
- GI50 (MDA-MB-435): 2.52 µM (inactive)
- GI50 (MDA-N): 1.65 µM (inactive)
- GI50 (MOLT-4): 4.99 µM (inactive)
- GI50 (Malme-3M): 5.07 µM (inactive)
- GI50 (NCI-H226): 28.6 µM (inactive)
- GI50 (NCI-H23): 7.23 µM (inactive)
- GI50 (NCI-H460): 3.85 µM (inactive)
- GI50 (NCI-H522): 2.14 µM (inactive)
- GI50 (NCI/ADR-RES): 4.48 µM (inactive)
- GI50 (OVCAR-3): 3.94 µM (inactive)
- GI50 (OVCAR-4): > 83 µM (inactive)
- GI50 (OVCAR-5): 49.9 µM (inactive)
- GI50 (OVCAR-8): 14.8 µM (inactive)
- GI50 (PC-3): 5.48 µM (inactive)
- GI50 (RPMI-8226): 3.66 µM (inactive)
- GI50 (SF-268): 20.1 µM (inactive)
- GI50 (SF-295): 4.21 µM (inactive)
- GI50 (SF-539): 3.77 µM (inactive)
- GI50 (SK-MEL-28): 20.6 µM (inactive)
- GI50 (SK-MEL-2): 8.67 µM (inactive)
- GI50 (SK-MEL-5): 4.32 µM (inactive)
- GI50 (SK-OV-3): 8.38 µM (inactive)
- GI50 (SN12C): 10.9 µM (inactive)
- GI50 (SNB-19): 13.2 µM (inactive)
- GI50 (SNB-75): 3.21 µM (inactive)
- GI50 (SR): 1.87 µM (inactive)
- GI50 (SW-620): 5.81 µM (inactive)
- GI50 (T47D): 17.3 µM (inactive)
- GI50 (TK-10): 43.6 µM (inactive)
- GI50 (U-251): 7.14 µM (inactive)
- GI50 (UACC-257): 5.24 µM (inactive)
- GI50 (UACC-62): 4.37 µM (inactive)
- GI50 (UO-31): 5.74 µM (inactive)
